Test results reported in ChEMBL document CHEMBL3817731, “Synthesis and investigation of novel benzimidazole derivatives as antifungal agents” (Bioorg Med Chem, 2016).
Converted amounts (≈) assume the structure as drawn.

What follows are compounds tested on Candida albicans (assay: Antifungal activity against Candida albicans ATCC MYA-2876 after 48 hrs by CLSI M27-A3 method). Details: ATCC MYA-2876, 48 h.
Assay type: functional

MIC [µg/mL]	Compound
> 31.2	CN1CCN(c2ccc3nc(-c4ccc5nc(-c6ccc(OCCOCCO)cc6)[nH]c5c4)[nH]c3c2)CC1
> 31.2	CCCCCCCCCCCCOc1ccc(-c2nc3ccc(-c4nc5ccc(N6CCN(C)CC6)cc5[nH]4)cc3[nH]2)cc1

These compounds were tested on Candida albicans (assay: Antifungal activity against Candida albicans ATCC MYA-1237 after 48 hrs by CLSI M27-A3 method). Details: ATCC MYA-1237, 48 h.
Assay type: functional

MIC [µg/mL]	Compound
> 31.2	CN1CCN(c2ccc3nc(-c4ccc5nc(-c6ccc(OCCOCCO)cc6)[nH]c5c4)[nH]c3c2)CC1
> 31.2	CCCCCCCCCCCCOc1ccc(-c2nc3ccc(-c4nc5ccc(N6CCN(C)CC6)cc5[nH]4)cc3[nH]2)cc1

The compounds below were run on Candida parapsilosis (assay: Antifungal activity against Candida parapsilosis ATCC 22019 after 48 hrs by CLSI M27-A3 method). Details: Lodderomyces parapsilosis, ATCC 22019, 48 h.
Assay type: functional

MIC [µg/mL]	Compound
31.2 (≈ 60.9 µM)	CN1CCN(c2ccc3nc(-c4ccc5nc(-c6ccc(OCCOCCO)cc6)[nH]c5c4)[nH]c3c2)CC1
> 31.2	CCCCCCCCCCCCOc1ccc(-c2nc3ccc(-c4nc5ccc(N6CCN(C)CC6)cc5[nH]4)cc3[nH]2)cc1

The compounds below were run on Candida albicans (assay: Antifungal activity against Candida albicans ATCC MYA-90819 after 48 hrs by CLSI M27-A3 method). Details: ATCC MYA-90819, 48 h.
Assay type: functional

MIC [µg/mL]	Compound
> 31.2	CN1CCN(c2ccc3nc(-c4ccc5nc(-c6ccc(OCCOCCO)cc6)[nH]c5c4)[nH]c3c2)CC1
> 31.2	CCCCCCCCCCCCOc1ccc(-c2nc3ccc(-c4nc5ccc(N6CCN(C)CC6)cc5[nH]4)cc3[nH]2)cc1

What follows are compounds tested on Aspergillus terreus (assay: Antifungal activity against Aspergillus terreus ATCC MYA3633 after 48 hrs by CLSI M38-A2 method). Details: ATCC MYA3633, 48 h.
Assay type: functional

MIC [µg/mL]	Compound
> 31.2	CN1CCN(c2ccc3nc(-c4ccc5nc(-c6ccc(OCCOCCO)cc6)[nH]c5c4)[nH]c3c2)CC1
> 31.2	CCCCCCCCCCCCOc1ccc(-c2nc3ccc(-c4nc5ccc(N6CCN(C)CC6)cc5[nH]4)cc3[nH]2)cc1

What follows are compounds tested on Aspergillus nidulans (assay: Antifungal activity against Aspergillus nidulans ATCC 38163 after 48 hrs by CLSI M38-A2 method). Details: ATCC 38163, 48 h.
Assay type: functional

MIC [µg/mL]	Compound
> 31.2	CN1CCN(c2ccc3nc(-c4ccc5nc(-c6ccc(OCCOCCO)cc6)[nH]c5c4)[nH]c3c2)CC1
> 31.2	CCCCCCCCCCCCOc1ccc(-c2nc3ccc(-c4nc5ccc(N6CCN(C)CC6)cc5[nH]4)cc3[nH]2)cc1

What follows are compounds tested on Candida albicans (assay: Antifungal activity against Candida albicans ATCC 10231 after 48 hrs by CLSI M27-A3 method). Details: ATCC 10231, 48 h.
Assay type: functional

MIC [µg/mL]	Compound
> 31.2	CN1CCN(c2ccc3nc(-c4ccc5nc(-c6ccc(OCCOCCO)cc6)[nH]c5c4)[nH]c3c2)CC1
> 31.2	CCCCCCCCCCCCOc1ccc(-c2nc3ccc(-c4nc5ccc(N6CCN(C)CC6)cc5[nH]4)cc3[nH]2)cc1

These compounds were tested on Candida albicans (assay: Antifungal activity against Candida albicans ATCC 64124 after 48 hrs by CLSI M27-A3 method). Details: ATCC 64124, 48 h.
Assay type: functional

MIC [µg/mL]	Compound
> 31.2	CN1CCN(c2ccc3nc(-c4ccc5nc(-c6ccc(OCCOCCO)cc6)[nH]c5c4)[nH]c3c2)CC1
> 31.2	CCCCCCCCCCCCOc1ccc(-c2nc3ccc(-c4nc5ccc(N6CCN(C)CC6)cc5[nH]4)cc3[nH]2)cc1

The compounds below were run on Pichia kudriavzevii (assay: Antifungal activity against Candida krusei ATCC 6258 after 48 hrs by CLSI M27-A3 method). Details: ATCC 6258, 48 h.
Assay type: functional

MIC [µg/mL]	Compound
7.8 (≈ 15.2 µM)	CN1CCN(c2ccc3nc(-c4ccc5nc(-c6ccc(OCCOCCO)cc6)[nH]c5c4)[nH]c3c2)CC1
> 31.2	CCCCCCCCCCCCOc1ccc(-c2nc3ccc(-c4nc5ccc(N6CCN(C)CC6)cc5[nH]4)cc3[nH]2)cc1

These compounds were tested on Nakaseomyces glabratus (assay: Antifungal activity against Candida glabrata ATCC 2001 after 48 hrs by CLSI M27-A3 method). Details: CBS 138, 48 h.
Assay type: functional

MIC [µg/mL]	Compound
> 31.2	CN1CCN(c2ccc3nc(-c4ccc5nc(-c6ccc(OCCOCCO)cc6)[nH]c5c4)[nH]c3c2)CC1
> 31.2	CCCCCCCCCCCCOc1ccc(-c2nc3ccc(-c4nc5ccc(N6CCN(C)CC6)cc5[nH]4)cc3[nH]2)cc1

These compounds were tested on Aspergillus flavus (assay: Antifungal activity against Aspergillus flavus ATCC MYA-3631 after 48 hrs by CLSI M38-A2 method). Details: ATCC MYA-3631, 48 h.
Assay type: functional

MIC [µg/mL]	Compound
> 31.2	CN1CCN(c2ccc3nc(-c4ccc5nc(-c6ccc(OCCOCCO)cc6)[nH]c5c4)[nH]c3c2)CC1
> 31.2	CCCCCCCCCCCCOc1ccc(-c2nc3ccc(-c4nc5ccc(N6CCN(C)CC6)cc5[nH]4)cc3[nH]2)cc1

These compounds were tested on Candida albicans (assay: Antifungal activity against Candida albicans ATCC MYA-2310 after 48 hrs by CLSI M27-A3 method). Details: ATCC MYA-2310, 48 h.
Assay type: functional

MIC [µg/mL]	Compound
> 31.2	CN1CCN(c2ccc3nc(-c4ccc5nc(-c6ccc(OCCOCCO)cc6)[nH]c5c4)[nH]c3c2)CC1
> 31.2	CCCCCCCCCCCCOc1ccc(-c2nc3ccc(-c4nc5ccc(N6CCN(C)CC6)cc5[nH]4)cc3[nH]2)cc1

What follows are compounds tested on Candida albicans (assay: Antifungal activity against Candida albicans ATCC MYA-1003 after 48 hrs by CLSI M27-A3 method). Details: ATCC MYA-1003, 48 h.
Assay type: functional

MIC [µg/mL]	Compound
> 31.2	CN1CCN(c2ccc3nc(-c4ccc5nc(-c6ccc(OCCOCCO)cc6)[nH]c5c4)[nH]c3c2)CC1
> 31.2	CCCCCCCCCCCCOc1ccc(-c2nc3ccc(-c4nc5ccc(N6CCN(C)CC6)cc5[nH]4)cc3[nH]2)cc1
